From ChEMBL document CHEMBL1135961, “Synthesis and biological activity of 8beta-substituted hydrocodone indole and hydromorphone indole derivatives” (Bioorg Med Chem Lett, 2002)
pKi: −log10 of the molar value.

Legend:
[1] = molecular target: Mu-type opioid receptor (Homo sapiens) (UniProt P35372); test: Selectivity determined for mu opioid receptor to that of delta opioid receptor
Mu-type opioid receptor [2] = molecular target: T1, Mu-type opioid receptor (Cavia porcellus, UniProt P97266); test: Binding affinity for mu opioid receptor by displacing DAMGO was determined in [35S]-GTP gamma-S binding assay; Inactive; type: functional
T1 sequence (P97266 whole entry): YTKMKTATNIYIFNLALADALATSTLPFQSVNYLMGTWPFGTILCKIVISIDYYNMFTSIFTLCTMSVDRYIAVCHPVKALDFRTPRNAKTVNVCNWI

[3] = molecular target: T2, Kappa-type opioid receptor (Cavia porcellus, UniProt P41144); test: Binding affinity for kappa opioid receptor by displacing U-69,593 was determined in [35S]-GTP gamma-S binding assay; Inactive; type: functional
T2 sequence (P41144 whole entry): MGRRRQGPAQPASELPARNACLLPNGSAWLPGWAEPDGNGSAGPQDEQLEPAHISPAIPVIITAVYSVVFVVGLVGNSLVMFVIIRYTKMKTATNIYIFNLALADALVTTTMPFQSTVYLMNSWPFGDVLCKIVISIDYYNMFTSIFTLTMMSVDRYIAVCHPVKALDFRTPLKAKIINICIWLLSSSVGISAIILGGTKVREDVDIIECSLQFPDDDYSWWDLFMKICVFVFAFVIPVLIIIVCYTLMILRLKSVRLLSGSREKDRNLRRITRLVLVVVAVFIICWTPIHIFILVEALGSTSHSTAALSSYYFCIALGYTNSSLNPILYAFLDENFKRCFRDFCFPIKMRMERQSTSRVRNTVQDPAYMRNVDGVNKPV

[4] = molecular target: T2, Kappa-type opioid receptor; test: Binding affinity for kappa opioid receptor by displacing U-69,593 was determined in [35S]GTP gamma-S binding assay; type: functional
[5] = molecular target: Mu-type opioid receptor (Homo sapiens) (UniProt P35372); test: Selectivity for mu to that of delta opioid receptor was determined in [35S]-GTP gamma-S binding assay
Mu-type opioid receptor [6] = molecular target: T1, Mu-type opioid receptor; test: Binding affinity for mu opioid receptor by displacing DAMGO was determined in [35S]GTP gamma-S binding assay; type: functional

Mu-type opioid receptor (Homo sapiens), sequence (P35372 whole entry): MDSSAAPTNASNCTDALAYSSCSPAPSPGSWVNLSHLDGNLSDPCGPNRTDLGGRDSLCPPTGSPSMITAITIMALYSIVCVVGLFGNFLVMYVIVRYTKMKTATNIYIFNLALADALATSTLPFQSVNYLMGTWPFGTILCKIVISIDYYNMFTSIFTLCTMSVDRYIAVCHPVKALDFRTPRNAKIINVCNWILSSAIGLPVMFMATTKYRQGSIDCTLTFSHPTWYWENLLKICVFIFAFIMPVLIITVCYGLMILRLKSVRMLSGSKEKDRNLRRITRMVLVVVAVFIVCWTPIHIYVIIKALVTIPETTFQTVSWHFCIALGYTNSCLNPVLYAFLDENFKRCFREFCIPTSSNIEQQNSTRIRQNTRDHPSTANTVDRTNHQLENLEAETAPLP

Compound: C[C@H]1c2c([nH]c3ccccc23)[C@@H]2Oc3c(O)ccc4c3C23CCN(CC2CC2)C(C4)C13 (some centres not stated)
- Ratio [1]: 29

Compound: C=CC(C)N1CCC23c4c5ccc(O)c4O[C@H]2c2[nH]c4ccccc4c2[C@H](C)C3C1C5 (some centres not stated)
- Ratio [1]: 120

Compound: CCCC[C@H]1c2c([nH]c3ccccc23)[C@@H]2Oc3c(OC)ccc4c3C23CCN(C)C(C4)C13 (some centres not stated)
- pKi (Mu-type opioid receptor [2]): < 6.22
- pKi [3]: < 6.46
- Ratio [1]: > 12

Compound: C[C@H]1c2c([nH]c3ccccc23)[C@@H]2Oc3c(O)ccc4c3C23CCN(C)C(C4)C13 (some centres not stated)
- pKi (Mu-type opioid receptor [2]): < 6.22
- pKi [4]: 6.40
- Ratio [1]: 322

Compound: CCCC[C@H]1c2c([nH]c3ccccc23)[C@@H]2Oc3c(O)ccc4c3C23CCN(C)C(C4)C13 (some centres not stated)
- pKi [4]: 6.57
- Ratio [1]: 50
- Ratio [5]: 12
- pKi (Mu-type opioid receptor [6]): 6.25

Compound: CN1CC[C@]23c4c5ccc(O)c4O[C@H]2c2[nH]c4ccccc4c2C[C@H]3[C@H]1C5
- pKi [4]: 6.14
- Ratio [1]: 296
- Ratio [5]: 14
- pKi (Mu-type opioid receptor [6]): 6.69

Compound: COc1ccc2c3c1O[C@H]1c4[nH]c5ccccc5c4[C@H](C)C4C(C2)N(C)CCC341 (some centres not stated)
- pKi (Mu-type opioid receptor [2]): < 6.22
- pKi [3]: < 6.46
- Ratio [1]: > 177

Compound: COc1ccc2c3c1O[C@H]1c4[nH]c5ccccc5c4CC4C(C2)N(C)CCC341 (some centres not stated)
- pKi (Mu-type opioid receptor [2]): < 6.22
- pKi [3]: < 6.46
- Ratio [1]: > 53
